Test results from patent US5591743A, “3,5-dioxo-(2H,4H)-1,2,4-triazine derivatives as 5HT1A ligands” (Pierre Fabre Medicament, priority 1993, dated 1997).
Like-named read-outs stand apart in the source and are kept apart here.

Key:
[1] = target: T1, serotoninergic receptors of type 5-HT1A (Rattus norvegicus, UniProt P19327); assay: 5-HT syndrome (flat body posture, lower-lip retraction, fore-paw treading); format: in vivo; settings: ip, male Sprague-Dawley rat, i.p.
T1 construct: carried out on the male rat (Sprague-Dawley); from tissue; host or cells: whole living male Sprague-Dawley rat (in vivo test)
T1 sequence (P19327 1-422): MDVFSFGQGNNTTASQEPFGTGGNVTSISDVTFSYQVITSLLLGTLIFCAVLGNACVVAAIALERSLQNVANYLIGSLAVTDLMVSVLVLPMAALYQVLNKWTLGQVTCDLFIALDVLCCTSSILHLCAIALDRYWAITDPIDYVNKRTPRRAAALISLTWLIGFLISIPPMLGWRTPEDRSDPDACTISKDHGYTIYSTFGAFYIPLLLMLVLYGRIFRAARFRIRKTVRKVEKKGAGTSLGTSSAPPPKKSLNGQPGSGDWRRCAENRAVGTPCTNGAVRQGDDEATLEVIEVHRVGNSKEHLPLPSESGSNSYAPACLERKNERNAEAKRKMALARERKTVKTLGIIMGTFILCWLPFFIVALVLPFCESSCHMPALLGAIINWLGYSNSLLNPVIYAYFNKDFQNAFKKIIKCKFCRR
Protocol: The experiments of the evaluation of the 5-HT syndrome are carried out on the male rat (Sprague-Dawley) by the method described by F. C. Colpaert et al. (Drug. Dev. Res. 26:21-48, 1992).

[2] = target: T2, 5-HT1A receptor (Rattus norvegicus, UniProt P19327); assay: Affinity for the receptor 5-HT1A: displacement of [3H]8-OH-DPAT in rat cerebral cortex; format: binding; settings: [3H]8-OH-DPAT 0.2 nM, 23° C., 30 minutes, average of 3 to 5 experiments, read-out: pKi (affinity for the receptor 5-HT1A) (converted)
T2 construct: The brain is dissected and the cortex is homogenized in 20 volumes of Tris-HCl buffer; from tissue; host or cells: rat cerebral cortex homogenate
T2 sequence (P19327 1-422): T1 sequence (P19327 1-422)
Protocol: Thus, they were the object of a study relating to their affinity for serotoninergic receptors such as 5-HT1A.
The study of the bonding to the receptor 5-HT1A is carried out in the manner described by Sleight and Peroutka (Naunyn-Schmiedebergs Arch. Pharmacol. 343:106-116, 1991). For these experiments, rat cerebral cortices are used. The brain is dissected and the cortex is homogenized in 20 volumes of Tris-HCl buffer (50 mM, pH 7.4 at 25° C.) kept at 4° C. The homogenate is centrifuged at 39000 g for 10 minutes, the final product is suspended in the same volume of buffer and centrifuged again. After being again placed in suspension under the same conditions, the homogenate is incubated for 10 minutes at 37° C. and then centrifuged again. The final product is suspended in 80 volumes of reaction buffer containing pargyline (10^- 5M), CaCl2 (4 mM) and ascorbic acid (0.1%) in Tris-HCl (50 mM, pH 7.4 at 25° C.). The final concentration of tissue in the incubation medium is 10 mg/tube.
In the saturation experiments, the reaction tubes contain 0.1 ml of different concentrations of [^3 H]8--OH--DPAT (between 0.06 and 8 nM), 0.1 ml of reaction buffer 5-HT (10^-5 M, in order to determine the non-specific bond) and 0.8 ml of tissue.
The displacement experiments are carried out in the manner described by Sleight and Peroutka (Naunyn-Schmiedebergs Arch. Pharmacol. 343:106-116, 1991). All the dilutions of products to be studied are prepared in the reaction buffer. The reaction tubes contain 0.1 ml of [^3 H]8-OH-DPAT (0.2 nM), 0.1 ml of product to be tested 6-7 concentrations (successive dilutions to 1/10) and 0.8 ml of tissue. […] The radioactivity collected on the filter is analyzed in liquid scintillation by adding 4 ml of scintillating liquid (Emulsifier Safe, Packard). All the experiments are carried out in triplicate and repeated at least 3 times.
The dissociation constant (KD) and the maximum number of bond sites (Bmax) for the radioligand are estimated on the basis of the saturation experiments using the non-linear regression program EBDA/LIGAND (Biosoft) (Munson and Rodbard: Anal. Biochem. 107:220-239, 1980). The affinity constants (Ki) of the reference products are estimated on the basis of the displacement experiments using the EBDA/LIGAND non-linear regression program. […] The data of the displacement experiments are analyzed with the one-site and two-site models respectively and the calculated F makes it possible to determine whether the two-site model is more representative of the data obtained than the one-site model. The values of pKi are given in the form of the average ±SEM of 3 to 5 experiments.

[3] = FBP, read-out: ED50 FBP (flat body posture)
[4] = FPT, read-out: ED50 FPT (reciprocal fore-paw treading)
[5] = LLR, read-out: ED50 LLR (lower-lip retraction)

Row | SMILES | ED50 [1, 3] | ED50 [1, 4] | ED50 [1, 5] | Ki [2]
1 | O=C1CC2(CCCC2)CC(=O)N1CCCCN1CCN(c2ncccn2)CC1 [Buspirone, reference compound] | 5 mg/kg | > 40 mg/kg | 1.25 mg/kg | –
2 | Cn1nc(NCCCCN2CCN(c3cccc(C(F)(F)F)c3)CC2)c(=O)n(C)c1=O [Compound 1, 2,4-dimethyl-3,5-dioxo-(2H, 4H)-6-(4-(4-(3-trifluoromethylphenyl)piperazino)butylamino)-1,2,4-triazine] | 0.31 mg/kg | 0.31 mg/kg | 0.31 mg/kg | 0.316 nM
3 | Cn1nc(NCCCCN2CCN(c3cccc(Cl)c3)CC2)c(=O)n(C)c1=O [Compound 2, 2,4-dimethyl-3,5-dioxo-(2H,4H)-6-(4(4-(3-chlorophenyl)piperazino)butylamino)-1,2,4-triazine] | 0.31 mg/kg | 40 mg/kg | 0.31 mg/kg | 0.398 nM
4 | COc1ccccc1N1CCN(CCCCNc2nn(C)c(=O)n(C)c2=O)CC1 [Compound 3, 2,4-dimethyl-3,5-dioxo-(2H,4H)-6-(4-(4-(2-methoxyphenyl)piperazino)butylamino)-1,2,4-triazine] | – | – | – | 0.617 nM
5 | Cn1nc(NCCCN2CCN(c3cccc(C(F)(F)F)c3)CC2)c(=O)n(C)c1=O [Compound 6, 2,4-dimethyl-3,5-dioxo-(2H,4H)-6-(3-(4-(3-trifluoromethylphenyl)piperazino)propylamino)-1,2,4-triazine] | – | – | – | 16.2 nM
6 | Cn1nc(NCCCCNCC2COc3ccccc3O2)c(=O)n(C)c1=O (stereo not shown) [Compound 9, 2,4-dimethyl-3,5-dioxo-(2H,4H)-6-(4-(1,4-benzodioxan-2 ylmethylamino)butylamino)-1,2,4-triazine] | – | – | – | 2.69 nM
7 | Cn1nc(NCCCNCC2COc3ccccc3O2)c(=O)n(C)c1=O (stereo not shown) [Compound 10, 2,4-dimethyl-3,5-dioxo-(2H, 4H)-6-(3-(1,4-benzodioxan-2 ylmethylamino)propylamino)-1,2,4-triazine] | – | – | – | 3.8 nM
8 | CCCCn1c(=O)[nH]nc(NCCCCN2CCN(c3cccc(C(F)(F)F)c3)CC2)c1=O [Compound 11, 4-butyl-3,5-dioxo-(2H, 4H)-6-(4-(4-(3-trifluoromethylphenyl)piperazino)butylamino)-1,2,4-triazine] | – | – | – | 12.6 nM
